Where “and” joins values, the source holds several entries; their conditions need not be identical. Equal values may be shown once. Inconclusive results and toxic doses are left out. Rule for the calls: active = survival T/C of 150% or more; inactive = T/C below 125% in these data.
Tested on: CD2F1 mice, L1210 leukemia ip, survival T/C
Test: NCI In Vivo Anticancer Drug Screen. Data for tumor model L1210 Leukemia (intraperitoneal) in CD2F1 (CDF1) mice
Settings: higher = longer survival
Method in brief: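 Mice carrying a transplanted tumor received test compound or vehicle alone. The value is the measurement in the treated group divided by that in the vehicle-treated control group.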

[1] = endpoint: mean survival time, dose: 100.0 mg/kg/injection, schedule: Q01DX009 (ip), vehicle: saline with Tween-80
[2] = endpoint: mean survival time, dose: 200.0 mg/kg/injection, schedule: Q01DX009 (ip), vehicle: saline with Tween-80
[3] = endpoint: mean survival time, dose: 400.0 mg/kg/injection, schedule: Q01DX009 (ip), vehicle: saline with Tween-80

Measured: T/C

O=c1[nH]c(=O)n(C2CC(O)C(CO)O2)cc1/C=C/c1ccccc1 (stereo not given)
inactive: endpoint: mean survival time, dose: 6.25 mg/kg/injection, schedule: Q01DX005 (ip), vehicle: distilled water + Tween-80 97 % of control | endpoint: mean survival time, dose: 12.5 mg/kg/injection, schedule: Q01DX005 (ip), vehicle: distilled water + Tween-80 103 % of control | endpoint: mean survival time, dose: 25.0 mg/kg/injection, schedule: Q01DX005 (ip), vehicle: distilled water + Tween-80 95 % of control | endpoint: mean survival time, dose: 50.0 mg/kg/injection, schedule: Q01DX005 (ip), vehicle: distilled water + Tween-80 95 % of control | endpoint: mean survival time, dose: 100.0 mg/kg/injection, schedule: Q01DX005 (ip), vehicle: distilled water + Tween-80 96 % of control

O=C(Nc1cccc([N+](=O)[O-])c1)c1ccc(Cl)cc1Cl
inactive: [1] 90 % of control | [2] 92 % of control | [3] 90 % of control

CN1C(=O)NC(c2cccc(N(CCCl)CCCl)c2)C1=O (stereo not given)
inactive: endpoint: mean survival time, dose: 25.0 mg/kg/injection, schedule: Q01DX001 (ip), vehicle: Klucel (hydroxypropylcellulose) (HPC) 116 % of control and 108 % of control | endpoint: mean survival time, dose: 50.0 mg/kg/injection, schedule: Q01DX001 (ip), vehicle: Klucel (hydroxypropylcellulose) (HPC) 120 % of control | endpoint: mean survival time, dose: 100.0 mg/kg/injection, schedule: Q01DX001 (ip), vehicle: Klucel (hydroxypropylcellulose) (HPC) 121 % of control

C=CC(C)(C)S(=O)[O-].C[c-]1[c-][c-][c-][c-]1.[C-]#[O+].[C-]#[O+].[Fe+6]
inactive: endpoint: mean survival time, dose: 50.0 mg/kg/injection, schedule: Q04DX002 (ip), vehicle: saline 109 % of control | endpoint: mean survival time, dose: 100.0 mg/kg/injection, schedule: Q04DX002 (ip), vehicle: saline 102 % of control

CCCCCCCCCCCCCCCCN(C)c1ccc(C(=O)OC)cc1[N+](=O)[O-]
inactive: endpoint: mean survival time, dose: 100.0 mg/kg/injection, schedule: Q01DX009 (ip), vehicle: Klucel (hydroxypropylcellulose) (HPC) 97 % of control | endpoint: mean survival time, dose: 100.0 mg/kg/injection, schedule: Q04DX003 (ip), vehicle: saline 98 % of control | endpoint: mean survival time, dose: 200.0 mg/kg/injection, schedule: Q01DX009 (ip), vehicle: Klucel (hydroxypropylcellulose) (HPC) 101 % of control | endpoint: mean survival time, dose: 200.0 mg/kg/injection, schedule: Q04DX003 (ip), vehicle: saline 91 % of control | endpoint: mean survival time, dose: 400.0 mg/kg/injection, schedule: Q01DX009 (ip), vehicle: Klucel (hydroxypropylcellulose) (HPC) 97 % of control | endpoint: mean survival time, dose: 400.0 mg/kg/injection, schedule: Q04DX003 (ip), vehicle: saline 95 % of control

C1CNC(SCCOCCOCCSC2=NCCN2)=N1
inactive: endpoint: mean survival time, dose: 12.5 mg/kg/injection, schedule: Q01DX009 (ip), vehicle: saline 97 % of control | endpoint: mean survival time, dose: 25.0 mg/kg/injection, schedule: Q01DX009 (ip), vehicle: saline 97 % of control | endpoint: mean survival time, dose: 50.0 mg/kg/injection, schedule: Q01DX009 (ip), vehicle: saline 100 % of control

O.O.O=C(O)C(O)C(O)C(OC1OC(CO)C(O)C(O)C1O)C(O)CO.O=C(O)C(O)C(O)C(OC1OC(CO)C(O)C(O)C1O)C(O)CO.[NH-]C1CCCCC1[NH-].[Pt+2] (stereo not given)
inactive: endpoint: median survival time, dose: 3.12 mg/kg/injection, schedule: Q04DX003 (ip), vehicle: saline 100 % of control | endpoint: median survival time, dose: 6.25 mg/kg/injection, schedule: Q04DX003 (ip), vehicle: saline 100 % of control | endpoint: median survival time, dose: 12.5 mg/kg/injection, schedule: Q04DX003 (ip), vehicle: saline 102 % of control | endpoint: median survival time, dose: 25.0 mg/kg/injection, schedule: Q04DX003 (ip), vehicle: saline 101 % of control | endpoint: median survival time, dose: 50.0 mg/kg/injection, schedule: Q04DX003 (ip), vehicle: saline 98 % of control | endpoint: median survival time, dose: 100.0 mg/kg/injection, schedule: Q04DX003 (ip), vehicle: saline 101 % of control | endpoint: median survival time, dose: 200.0 mg/kg/injection, schedule: Q04DX003 (ip), vehicle: saline 112 % of control

CSCC12CCCC=C1CC1(CC2)OCCO1 (stereo not given)
inactive: endpoint: mean survival time, dose: 100.0 mg/kg/injection, schedule: Q01DX001 (ip), vehicle: saline with Tween-80 96 % of control | endpoint: mean survival time, dose: 200.0 mg/kg/injection, schedule: Q01DX001 (ip), vehicle: saline with Tween-80 96 % of control | endpoint: mean survival time, dose: 400.0 mg/kg/injection, schedule: Q01DX001 (ip), vehicle: saline with Tween-80 96 % of control

CCOC(=O)c1ccc(NC(=O)CCOc2ccccc2)cc1
inactive: [1] 92 % of control and 101 % of control | endpoint: mean survival time, dose: 100.0 mg/kg/injection, schedule: Q04DX002 (ip), vehicle: saline with Tween-80 91 % of control | endpoint: mean survival time, dose: 100.0 mg/kg/injection, schedule: Q04DX003 (ip), vehicle: saline with Tween-80 86 % of control | [2] 92 % of control and 96 % of control | endpoint: mean survival time, dose: 200.0 mg/kg/injection, schedule: Q04DX002 (ip), vehicle: saline with Tween-80 86 % of control and 87 % of control | endpoint: mean survival time, dose: 200.0 mg/kg/injection, schedule: Q04DX003 (ip), vehicle: saline with Tween-80 86 % of control | [3] 89 % of control and 95 % of control | endpoint: mean survival time, dose: 400.0 mg/kg/injection, schedule: Q04DX002 (ip), vehicle: saline with Tween-80 94 % of control
